Experimental data from patent US20180221306A1, “PHARMACEUTICAL COMPOSITIONS OF 5-HYDROXY-2-METHYLNAPHTHALENE-1,4-DIONE” (PellFiCure Pharmaceuticals, Inc., priority 2016, published 2018).

System: PTEN-P2/H2B-GFP mouse prostate cancer cells
Assay: IVM pseudo-orthotopic prostate chamber model, tumor size
Settings: for Combination efficacy: the drug in combination with Compound I administered orally
Method: Male Nude mice (25-35 g body weight) are anesthetized (7.3 mg ketamine hydrochloride and 2.3 mg xylazine/100 g body weight, i.p.) and placed on a heating pad. Two symmetrical titanium frames are implanted into a dorsal skinfold, so as to sandwich the extended double layer of skin. A 15 mm full thickness circular layer is excised. The underlying muscle (M. cutaneous max.) and subcutaneous tissues are covered with a glass coverslip incorporated in one of the frames. After a recovery period of 2-3 days, prostate tissue and cancer cell spheroids are carefully placed in the chamber. Small circular Band Aids are applied on the backside of the chamber after surgery to prevent scratching. Before surgery, Buprenorphine (0.1 mg/kg) is given IP. After surgery Meloxicam is given in the drinking water for 4 days Meloxicam (5.0 mg/ml), is added at 35 μl per 100 ml of water to be medicated.
Mice are anesthetized with 7.3 mg ketamine hydrochloride and 2.3 mg xylazine/100 g body weight, i.p. A lateral incision across the scrotum is made and the testes are individually ligated and excised. The wound is cauterized. The incision is then sutured and sealed with Nexaband® acrylic.
Preparation of tumor spheroids: Liquid overlay plates were generated using 1% molecular biology grade agarose melted in cell culture medium and plated in round bottom 96 well plates at 50 ul/well. Tumor cells grown as pre-confluent monolayers were trypsinized and diluted to a final volume of 1,000,000 cells/ml. Viability was determined by Trypan blue. Cells were placed onto the cooled agarose (70 μl/well) and allowed to compact into spheroids for 24 hours. The spheroids were picked with a pipette and transferred into serum-free media for implantation in the chambers.
IntraVital Microscopy (IVM) can be used to visualize tumors in animals and analyze various aspects of cancer physiology such as tumor vascularization, cell migration and metastasis. An advantage of IVM includes the real-time analysis of dynamic processes with single-cell resolution. IntraVital microscopy offers the possibility to follow tumor growth in a non-invasive, non-destructive manner. The application of IVM can be limited to animal models that bear visually accessible tumors. Therefore, the dorsal skinfold chamber model described above can be compatible with IVM. Using IVM can permit a number of parameters to be measured in living animals and as a function of time, including tumor growth, angiogenesis, infiltration by immune cells, tumor cell migration, mitosis (cell-division) and apoptosis (programmed cell death), all in the context of the host and in real time.
Unless otherwise indicated, Compound I was administered by oral gavage in a sesame oil (Carrier A) formulation. Compound I was dissolved in DMSO then in oil at a concentration of 0.25 mg/ml (weight/volume) with a final DMSO concentration of 0.5% (vol/vol), and administered to mice at 1 mg/kg. In some experiments, Compound I dissolved in a mixture of poly-ethylene glycol/DMSO 30% (w/v) was administered via intra-peritoneal injection.
The efficacy of the formulation of Compound I in Carrier A for oral administration was compared to the previous formulation of Compound I in poly-ethylene glycol (PEG) for intra-peritoneal injection (i.p.). These experiments were performed using Intra Vital Microscopy (IVM) in a pseudo-orthotopic prostate chamber model in which minced prostate tissue is grafted in chambers surgically placed in the dorsal skinfold of mice, and allowed to vascularize. Small tumor cells spheroids were then placed on the prostate tissue, creating a biologically relevant prostatic environment. The tumor cells that express fluorescent H2B-GFP and can be detected in situ and in real-time through the microscopy window of the dorsal chamber.
Epithelial cell lines derived from the prostate tumor of a PTEN-null mouse were used. Mouse prostate cancer cells PTEN-P2 are heterozygous for PTEN deletion and do express protein PTEN.

SMILES | Combination efficacy | also measured
CNC(=O)c1ccc(N2C(=S)N(c3ccc(C#N)c(C(F)(F)F)c3)C(=O)C2(C)C)cc1F [enzalutamide, (4-(3-(4-cyano-3-(trifluoromethyl)phenyl)-5,5-dimethyl-4-oxo-2-thioxoimidazolidin-1-yl)-2-fluoro-N-methylbenzamide), reference compound] | No | Effect on tumor size, drug alone (enzalutamide alone): did not result in a reduction in tumor size
C[C@]12C=CC(=O)N[C@@H]1CC[C@@H]1[C@@H]2CC[C@]2(C)[C@@H](C(=O)Nc3cc(C(F)(F)F)ccc3C(F)(F)F)CC[C@@H]12 [dutasteride, (5α,17β)-N-{2,5-bis(trifluoromethyl)phenyl}-3-oxo-4-azaandrost-1-ene-17-carboxamide, reference compound] | Yes | Tumor size relative to initial size (dutasteride alone): 120%
CC(O)(CS(=O)(=O)c1ccc(F)cc1)C(=O)Nc1ccc(C#N)c(C(F)(F)F)c1 (stereo not drawn) [bicalutamide, N-[4-cyano-3-(trifluoromethyl)phenyl]-3-[(4-fluorophenyl)sulfonyl]-2-hydroxy-2-methylpropanamide, reference compound] | No | Effect on tumor size, drug alone (bicalutamide alone, inhibited further tumor growth): did not result in a reduction of initial tumor size
CCNC(=O)[C@@H]1CCCN1C(=O)[C@H](CCCNC(=N)N)NC(=O)[C@H](CC(C)C)NC(=O)[C@@H](CC(C)C)NC(=O)[C@H](Cc1ccc(O)cc1)NC(=O)[C@H](CO)NC(=O)[C@H](Cc1c[nH]c2ccccc12)NC(=O)[C@H](Cc1c[nH]cn1)NC(=O)[C@@H]1CCC(=O)N1 [leuprolide, 5-oxo-L-prolyl-L-histidyl-L-tryptophyl-L-seryl-L-tyrosyl-D-leucyl-L-leucyl-L-arginyl-N-ethyl-Lprolinamide acetate, reference compound] | Yes | Effect on tumor growth, drug alone (leuprolide alone): arrested tumor growth after 15 days of treatment but did not decrease tumor sizes; Tumor size reached, relative to initial size (leuprolide alone (Lupron depot, 0.187 mg/mouse i.m. once)): 180%
CNC(=O)c1ccc2cc(C3(O)CCn4cncc43)ccc2c1 (stereo not drawn) [orteronel, 6-(7-Hydroxy-6,7-dihydro-5H-pyrrolo[1,2-c]imidazol-7-yl)-N-methyl-naphthalene-2-carboxamide, reference compound] | Yes | Effect on tumor size, drug alone (orteronel alone): did not result in a reduction in tumor size
C[C@]12CC[C@H](O)CC1=CC[C@@H]1[C@@H]2CC[C@]2(C)C(c3cccnc3)=CC[C@@H]12 [Abiratcrone, (3β)-17-(pyridin-3-yl)androsta-5,16-dien-3-ol, reference compound] | Yes | 
